Activation data for 2 molecules are collected here from PMC7305236, “The atypical chemokine receptor ACKR3/CXCR7 is a broad-spectrum scavenger for opioid peptides” (Nature Communications, 2020).

Test in all cases: Figure S2a opioid peptide screen on chemokine receptors
Common to all, as to assay type: cell-based
Holding throughout (design): dose or concentration left out as unconfirmed

Experiment [1] concerns the target T1, CXCR2 (Homo sapiens, UniProt P25025).
T1 construct: expressed in transfected cells
T1 sequence (P25025 1-360): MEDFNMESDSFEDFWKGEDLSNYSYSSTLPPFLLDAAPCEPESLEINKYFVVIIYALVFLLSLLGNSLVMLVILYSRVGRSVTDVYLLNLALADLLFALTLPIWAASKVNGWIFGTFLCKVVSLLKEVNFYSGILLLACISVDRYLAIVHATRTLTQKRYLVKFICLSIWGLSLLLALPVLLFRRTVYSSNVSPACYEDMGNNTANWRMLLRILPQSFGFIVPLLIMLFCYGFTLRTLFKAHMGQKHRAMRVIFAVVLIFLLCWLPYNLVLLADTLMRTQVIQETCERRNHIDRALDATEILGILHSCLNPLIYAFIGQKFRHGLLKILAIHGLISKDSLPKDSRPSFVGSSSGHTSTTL

Experiment [2] has as its target T2, CCR2 (Homo sapiens, UniProt P41597).
T2 construct: expressed in transfected cells
T2 sequence (P41597 1-360 isoform P41597-2): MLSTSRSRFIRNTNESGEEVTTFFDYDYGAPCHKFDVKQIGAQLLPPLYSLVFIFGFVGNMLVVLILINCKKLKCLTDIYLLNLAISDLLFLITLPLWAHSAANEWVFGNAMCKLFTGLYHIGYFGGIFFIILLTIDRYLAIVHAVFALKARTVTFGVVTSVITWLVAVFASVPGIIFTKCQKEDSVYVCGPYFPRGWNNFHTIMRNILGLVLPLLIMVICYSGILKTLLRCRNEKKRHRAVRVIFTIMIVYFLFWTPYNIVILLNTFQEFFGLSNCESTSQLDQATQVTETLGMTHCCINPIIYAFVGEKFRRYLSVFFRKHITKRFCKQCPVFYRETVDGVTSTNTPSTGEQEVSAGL

Experiment [3] concerns the target T3, CCR10 (Homo sapiens, UniProt P46092).
T3 construct: expressed in transfected cells
T3 sequence (P46092 1-362): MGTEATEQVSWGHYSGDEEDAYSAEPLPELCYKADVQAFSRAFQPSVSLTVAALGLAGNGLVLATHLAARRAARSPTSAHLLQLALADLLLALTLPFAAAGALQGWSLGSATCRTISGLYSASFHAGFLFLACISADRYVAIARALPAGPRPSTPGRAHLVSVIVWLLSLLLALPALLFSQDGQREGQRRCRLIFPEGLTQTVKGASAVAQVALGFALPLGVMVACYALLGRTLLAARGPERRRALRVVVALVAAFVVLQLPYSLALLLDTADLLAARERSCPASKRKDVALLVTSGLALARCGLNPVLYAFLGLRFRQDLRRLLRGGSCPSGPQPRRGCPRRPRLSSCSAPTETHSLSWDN

The target of experiment [4] is T4, CCR5 (Homo sapiens, UniProt P51681).
T4 construct: expressed in transfected cells

Experiment [5] has as its target T5, CXCR3B (Homo sapiens, UniProt P49682).
T5 construct: expressed in transfected cells; host or cells: U87 cells
T5 sequence (P49682 1-415 isoform P49682-2): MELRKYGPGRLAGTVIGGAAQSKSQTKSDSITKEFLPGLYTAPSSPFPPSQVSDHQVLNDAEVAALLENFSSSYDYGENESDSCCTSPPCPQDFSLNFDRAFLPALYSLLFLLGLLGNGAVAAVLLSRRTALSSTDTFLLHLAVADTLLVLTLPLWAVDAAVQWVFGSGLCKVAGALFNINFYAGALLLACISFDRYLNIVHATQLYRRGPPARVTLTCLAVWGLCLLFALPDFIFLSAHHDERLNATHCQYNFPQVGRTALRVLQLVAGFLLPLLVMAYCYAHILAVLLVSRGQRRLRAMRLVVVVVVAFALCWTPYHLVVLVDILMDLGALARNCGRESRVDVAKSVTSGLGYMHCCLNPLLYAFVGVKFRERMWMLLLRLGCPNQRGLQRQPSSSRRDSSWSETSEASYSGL

The target of experiment [6] is T6, ACKR2 (Homo sapiens, UniProt O00590).
T6 construct: expressed in transfected cells; host or cells: U87 cells (human glioblastoma)
T6 sequence (O00590 1-384): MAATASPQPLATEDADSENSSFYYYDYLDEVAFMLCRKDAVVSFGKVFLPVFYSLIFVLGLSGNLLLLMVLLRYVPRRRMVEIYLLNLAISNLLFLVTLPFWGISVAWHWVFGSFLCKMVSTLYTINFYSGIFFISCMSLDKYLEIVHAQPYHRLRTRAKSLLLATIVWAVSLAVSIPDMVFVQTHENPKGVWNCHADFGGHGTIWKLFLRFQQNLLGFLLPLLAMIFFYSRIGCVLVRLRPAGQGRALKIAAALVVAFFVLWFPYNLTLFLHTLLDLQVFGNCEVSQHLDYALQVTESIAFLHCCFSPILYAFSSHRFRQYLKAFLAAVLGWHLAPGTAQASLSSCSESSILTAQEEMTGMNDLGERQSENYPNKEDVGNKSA

The target of experiment [7] is T7, CXCR5 (Homo sapiens, UniProt P32302).
T7 construct: expressed in transfected cells
T7 sequence (P32302 1-372): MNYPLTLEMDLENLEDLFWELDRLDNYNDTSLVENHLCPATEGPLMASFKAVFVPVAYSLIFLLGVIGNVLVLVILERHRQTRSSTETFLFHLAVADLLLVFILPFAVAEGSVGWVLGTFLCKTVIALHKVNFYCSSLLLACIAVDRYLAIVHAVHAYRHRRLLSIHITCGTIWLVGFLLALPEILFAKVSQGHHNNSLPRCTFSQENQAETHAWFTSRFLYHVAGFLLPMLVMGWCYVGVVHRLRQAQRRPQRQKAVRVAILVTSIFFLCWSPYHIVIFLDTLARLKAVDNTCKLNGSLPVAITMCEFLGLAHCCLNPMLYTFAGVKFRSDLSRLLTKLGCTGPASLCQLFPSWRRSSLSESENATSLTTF

The mark [8] stands for this setting: replicate 1, read-out: CXCR2 activity, ctrl+ = 100.
Setting [9] is: replicate 2, read-out: CXCR2 activity, ctrl+ = 100.
Setting [10] is: replicate 3, read-out: CXCR2 activity, ctrl+ = 100.
Setting [11] is: replicate 1, read-out: CCR2 activity, ctrl+ = 100.
The mark [12] stands for this setting: replicate 2, read-out: CCR2 activity, ctrl+ = 100.
[13] abbreviates: replicate 3, read-out: CCR2 activity, ctrl+ = 100.
The mark [14] stands for this setting: replicate 1, read-out: CCR10 activity, ctrl+ = 100.
The mark [15] stands for this setting: replicate 2, read-out: CCR10 activity, ctrl+ = 100.
The mark [16] stands for this setting: replicate 3, read-out: CCR10 activity, ctrl+ = 100.
[17] abbreviates: replicate 1, read-out: CCR5 activity, ctrl+ = 100.
[18] abbreviates: replicate 2, read-out: CCR5 activity, ctrl+ = 100.
The mark [19] stands for this setting: replicate 3, read-out: CCR5 activity, ctrl+ = 100.
[20] abbreviates: replicate 1, read-out: CXCR3B activity, ctrl+ = 100.
Where [21] appears, read: replicate 2, read-out: CXCR3B activity, ctrl+ = 100.
[22] abbreviates: replicate 3, read-out: CXCR3B activity, ctrl+ = 100.
[23] abbreviates: replicate 1, read-out: ACKR2 activity, ctrl+ = 100.
[24] abbreviates: replicate 2, read-out: ACKR2 activity, ctrl+ = 100.
Where [25] appears, read: replicate 3, read-out: ACKR2 activity, ctrl+ = 100.
Where [26] appears, read: replicate 1, read-out: CXCR5 activity, ctrl+ = 100.
Where [27] appears, read: replicate 2, read-out: CXCR5 activity, ctrl+ = 100.
Setting [28] is: replicate 3, read-out: CXCR5 activity, ctrl+ = 100.

Like-named read-outs stand apart in the source and are kept apart here.

T4 sequence (P51681 whole entry): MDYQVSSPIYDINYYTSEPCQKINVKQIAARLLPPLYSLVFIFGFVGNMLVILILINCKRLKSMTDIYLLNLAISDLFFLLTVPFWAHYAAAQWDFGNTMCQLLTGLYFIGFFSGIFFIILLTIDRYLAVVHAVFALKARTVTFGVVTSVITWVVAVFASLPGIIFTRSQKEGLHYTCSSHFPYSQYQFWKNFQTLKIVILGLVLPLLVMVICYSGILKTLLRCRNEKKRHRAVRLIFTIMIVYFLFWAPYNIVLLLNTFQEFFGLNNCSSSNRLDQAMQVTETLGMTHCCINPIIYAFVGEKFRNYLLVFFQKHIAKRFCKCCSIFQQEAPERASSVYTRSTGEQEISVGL

With `CSCC[C@H](NC(=O)[C@H](Cc1ccccc1)NC(=O)CNC(=O)CNC(=O)[C@@H](N)Cc1ccc(O)cc1)C(=O)N[C@@H](CCCNC(=N)N)C(=O)N[C@@H](CCCNC(=N)N)C(=O)N[C@H](C(=O)NCC(=O)N[C@@H](CCCNC(=N)N)C(=O)N1CCC[C@H]1C(=O)N[C@@H](CCC(=O)O)C(=O)N[C@@H](Cc1c[nH]c2ccccc12)C(=O)N[C@@H](Cc1c[nH]c2ccccc12)C(=O)N[C@@H](CCSC)C(=O)N[C@@H](CC(=O)O)C(=O)N[C@@H](Cc1ccc(O)cc1)C(=O)N[C@@H](CCC(N)=O)C(=O)N[C@@H](CCCCN)C(=O)N[C@@H](CCCNC(=N)N)C(=O)N[C@@H](Cc1ccc(O)cc1)C(=O)NCC(=O)O)C(C)C` [BAM22], the activation is -3.38% in experiment [1] (setting [8]); -4.91% in experiment [1] (setting [9]); -1.55% in experiment [1] (setting [10]); -0.243% in experiment [2] (setting [11]); -1.08% in experiment [2] (setting [12]); 1.22% in experiment [2] (setting [13]). Further, the activation in experiment [3] (setting [14]) is -2.23%; in experiment [3] (setting [15]), -4.92%; in experiment [3] (setting [16]) it was -3.25%; in experiment [4] (setting [17]) it was 0.229%; in experiment [4] (setting [18]), -1.32%; in experiment [4] (setting [19]), -1.42%. In addition, the activation in experiment [5] (setting [20]) is -1.43%; in experiment [5] (setting [21]), 0.626%; in experiment [5] (setting [22]) it was 5.18%; in experiment [6] (setting [23]) it was -3.78%; in experiment [6] (setting [24]) it was -1.93%; in experiment [6] (setting [25]), -0.478%. The activation in experiment [7] (setting [26]) was -1.51%; in experiment [7] (setting [27]), -4.48%; in experiment [7] (setting [28]), -1.8%.
Turning to `CSCC[C@H](NC(=O)[C@H](Cc1ccccc1)NC(=O)CNC(=O)CNC(=O)[C@@H](N)Cc1ccc(O)cc1)C(=O)N[C@@H](CCCNC(=N)N)C(=O)N[C@@H](CCCNC(=N)N)C(=O)N[C@H](C(N)=O)C(C)C` [Adrenorphin], the activation in experiment [1] (setting [8]) was 3.42%; in experiment [1] (setting [9]) it was -6.62%; in experiment [1] (setting [10]) it was -0.394%; in experiment [2] (setting [11]) it was -0.901%; in experiment [2] (setting [12]), -1.07%; in experiment [2] (setting [13]) it was -1.1%. Moreover, the activation in experiment [3] (setting [14]) is 1.18%; in experiment [3] (setting [15]), -7.52%; in experiment [3] (setting [16]), -2%; in experiment [4] (setting [17]), 0.166%; in experiment [4] (setting [18]), -0.467%; in experiment [4] (setting [19]) it was -0.49%. Moreover, the activation in experiment [5] (setting [20]) was 3.73%; in experiment [5] (setting [21]), 1.55%; in experiment [5] (setting [22]), 0.555%; in experiment [6] (setting [23]), -9.62%; in experiment [6] (setting [24]), -28.7%; in experiment [6] (setting [25]), -0.924%. Further, the activation is -2.55% in experiment [7] (setting [26]), -4.15% in experiment [7] (setting [27]) and 2.83% in experiment [7] (setting [28]).
